The test system of this experiment is P388 leukemia ip, CD2F1 mice, survival T/C. Kind of experiment: NCI In Vivo Anticancer Drug Screen. Data for tumor model P388 Leukemia (intraperitoneal) in CD2F1 (CDF1) mice. The conditions noted are these: endpoint: median survival time, higher = longer survival. A digest of the protocol: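 Mice carrying the transplanted tumor received test compound or vehicle. Survival was recorded in each group, and the value is the treated-group measurement divided by that of the vehicle-treated control group.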

Where [1] appears, read: dose: 50.0 mg/kg/injection, schedule: Q01DX009 (ip), vehicle: saline with Tween-80.
[2] abbreviates: dose: 100.0 mg/kg/injection, schedule: Q01DX009 (ip), vehicle: saline with Tween-80.
Setting [3] is: dose: 200.0 mg/kg/injection, schedule: Q01DX009 (ip), vehicle: saline with Tween-80.
The mark [4] stands for this setting: dose: 50.0 mg/kg/injection, schedule: Q01DX009 (ip), vehicle: Klucel (hydroxypropylcellulose) (HPC).
Setting [5] is: dose: 100.0 mg/kg/injection, schedule: Q01DX009 (ip), vehicle: Klucel (hydroxypropylcellulose) (HPC).
[6] abbreviates: dose: 200.0 mg/kg/injection, schedule: Q01DX009 (ip), vehicle: Klucel (hydroxypropylcellulose) (HPC).
The mark [7] stands for this setting: dose: 6.25 mg/kg/injection, schedule: Q01DX009 (ip), vehicle: saline.
[8] abbreviates: dose: 12.5 mg/kg/injection, schedule: Q01DX009 (ip), vehicle: saline.
[9] abbreviates: dose: 25.0 mg/kg/injection, schedule: Q01DX009 (ip), vehicle: saline.
[10] abbreviates: dose: 50.0 mg/kg/injection, schedule: Q01DX005 (ip), vehicle: saline with Tween-80.
Where [11] appears, read: dose: 100.0 mg/kg/injection, schedule: Q01DX005 (ip), vehicle: saline with Tween-80.
Setting [12] is: dose: 200.0 mg/kg/injection, schedule: Q01DX005 (ip), vehicle: saline with Tween-80.
[13] abbreviates: dose: 50.0 mg/kg/injection, schedule: Q01DX005 (ip), vehicle: Klucel (hydroxypropylcellulose) (HPC).
Setting [14] is: dose: 100.0 mg/kg/injection, schedule: Q01DX005 (ip), vehicle: Klucel (hydroxypropylcellulose) (HPC).
Setting [15] is: dose: 200.0 mg/kg/injection, schedule: Q01DX005 (ip), vehicle: Klucel (hydroxypropylcellulose) (HPC).
[16] abbreviates: dose: 25.0 mg/kg/injection, schedule: Q01DX005 (ip), vehicle: saline with Tween-80.

Where “and” joins values, the source holds several entries; their conditions need not be identical. Equal entries are not always repeated. Toxic doses and inconclusive results are not listed.

Our source for the T/C values is PubChem BioAssay AID330 (DTP/NCI, 2004).

`CC1=NN(c2cc(S(=O)(=O)O)ccc2Cl)C(=O)C1`: the T/C is 101 % of control (dose: 50.0 mg/kg/injection, schedule: Q01DX009 (ip), vehicle: saline); 105 % of control (dose: 100.0 mg/kg/injection, schedule: Q01DX009 (ip), vehicle: saline); 97 % of control (dose: 200.0 mg/kg/injection, schedule: Q01DX009 (ip), vehicle: saline).
On to `CC1=NN(C(=O)c2ccncc2)C(=O)C1N=Nc1ccc(S(N)(=O)=O)cc1` (configuration not stated), for which the T/C is, setting by setting: under setting [1], 94 % of control; under setting [2], 95 % of control; under setting [3], 92 % of control.
Take `COCC(=O)Nc1ncc([N+](=O)[O-])s1`: the T/C by setting is: under setting [4], 102 % of control; under setting [5], 100 % of control; under setting [6], 94 % of control.
As for `Nc1ccc2c(c1)C(=O)CCC2`, the T/C runs as follows: under setting [1], 103 % of control; under setting [2], 99 % of control; under setting [3], 100 % of control.
Take `C=C1CC2(CC(C)CCC2C(C)C)OC1=O` (configuration not stated): the T/C by setting is: (dose: 100.0 mg/kg/injection, schedule: Q01DX001 (ip), vehicle: saline) 97 % of control; (dose: 200.0 mg/kg/injection, schedule: Q01DX001 (ip), vehicle: saline) 100 % of control; (dose: 400.0 mg/kg/injection, schedule: Q01DX001 (ip), vehicle: saline) 111 % of control.
Consider `O=S(=O)(O)C(O)C(F)(F)C(F)(F)C(F)(F)F` (configuration not stated), for which the T/C is, setting by setting: (dose: 60.0 mg/kg/injection, schedule: Q01DX005 (ip), vehicle: saline) 98 % of control; (dose: 120.0 mg/kg/injection, schedule: Q01DX005 (ip), vehicle: saline) 94 % of control; (dose: 240.0 mg/kg/injection, schedule: Q01DX005 (ip), vehicle: saline) 99 % of control.
Consider `C[C@@H]1CN(C(=O)CCOS(C)(=O)=O)[C@@H](C)CN1C(=O)CCOS(C)(=O)=O`, for which the T/C (dose: 3.13 mg/kg/injection, schedule: Q04DX003 (ip), vehicle: saline) is 113 % of control; the T/C (dose: 6.25 mg/kg/injection, schedule: Q04DX003 (ip), vehicle: saline) is 122 % of control; the T/C (dose: 264.0 mg/kg/injection, schedule: Q04DX003 (ip), vehicle: saline with Tween-80) is 218 % of control; the T/C (dose: 400.0 mg/kg/injection, schedule: Q04DX003 (ip), vehicle: saline with Tween-80) is 118 % of control.
In the case of `OC(CN1CCCCC1)c1ccc(/C=C/c2ccc(Cl)cc2)cc1` (configuration not stated), the T/C is 100 % of control under setting [7], 95 % of control under setting [8] and 96 % of control under setting [9].
On to `O=C(CCl)Nc1nc(NC(=O)CCl)nc(NC(=O)CCl)n1`, for which the T/C reads like this: (dose: 100.0 mg/kg/injection, schedule: Q04DX002 (ip), vehicle: saline) 96 % of control; (dose: 200.0 mg/kg/injection, schedule: Q04DX002 (ip), vehicle: saline) 96 % of control; (dose: 400.0 mg/kg/injection, schedule: Q04DX002 (ip), vehicle: saline) 95 % of control.
Regarding `NC(=O)c1oc([N+](=O)[O-])c(-c2ccccc2)c1-c1ccccc1`, the T/C is 99 % of control under setting [10], 102 % of control under setting [11] and 93 % of control under setting [12].
On to `CC1(C)N(/N=C/c2ccccc2)C(c2ccccc2)C(c2ccccc2)N1/N=C/c1ccccc1` (configuration not stated), for which the T/C is, setting by setting: under setting [13], 86 % of control; under setting [14], 89 % of control; under setting [15], 87 % of control.
As to `Cc1cnc(N)c(C(=O)O)n1`, the T/C reads like this: under setting [13], 102 % of control; under setting [14], 90 % of control.
Take `COC(=O)c1nnc(C(=O)OC)c2c1[nH]c1ccccc12`: the T/C is, setting by setting: (dose: 60.0 mg/kg/injection, schedule: Q01DX005 (ip), vehicle: saline with Tween-80) 96 % of control; (dose: 120.0 mg/kg/injection, schedule: Q01DX005 (ip), vehicle: saline with Tween-80) 103 % of control; (dose: 240.0 mg/kg/injection, schedule: Q01DX005 (ip), vehicle: saline with Tween-80) 94 % of control.
With `Cc1cc2c(cc1C)C(=O)C(Br)=C(N)C2=O`, the T/C reads like this: under setting [16], 94 % of control; under setting [10], 100 % of control and 91 % of control; under setting [11], 87 % of control; under setting [12], 92 % of control.
As to `CCOC(=O)Nc1ccc2nc(N3CCCCC3)sc2c1`, the T/C was 96 % of control under setting [1] and 90 % of control under setting [2].
Take `CC(NC(=O)C(Cl)Cl)C(=O)O` (configuration not stated): the T/C was 96 % of control under setting [13], 99 % of control under setting [14] and 96 % of control under setting [15].
Take `CC(=O)OCC1OC(OC(C)=O)C(NC(=O)CNC(=O)OCc2ccccc2)C(OC(C)=O)C1OC(C)=O` (configuration not stated): the T/C is, setting by setting: (dose: 12.5 mg/kg/injection, schedule: Q01DX009 (ip), vehicle: other) 107 % of control; (dose: 25.0 mg/kg/injection, schedule: Q01DX009 (ip), vehicle: other) 100 % of control; (dose: 50.0 mg/kg/injection, schedule: Q01DX009 (ip), vehicle: other) 91 % of control; (dose: 100.0 mg/kg/injection, schedule: Q01DX009 (ip), vehicle: other) 89 % of control; (dose: 200.0 mg/kg/injection, schedule: Q01DX009 (ip), vehicle: other) 98 % of control.
For the compound `O=C(OC1(c2nccc3ccccc23)CCN(CCc2ccccc2)CC1)c1ccccc1`, the T/C was 105 % of control under setting [7], 99 % of control under setting [8] and 97 % of control under setting [9].
In the case of `CCSc1ccc([N+](=O)[O-])c2c(SCC)c3ccccc3nc12`, the T/C is, setting by setting: under setting [10], 92 % of control; under setting [11], 95 % of control; under setting [12], 99 % of control.
Regarding `COc1ccc(OC)c(NC(=O)Nc2nc(C)cs2)c1`, the T/C under setting [4] was 92 % of control, the T/C under setting [5] was 93 % of control and the T/C under setting [6] is 90 % of control.
As to `ON(C(=S)c1ccccc1)c1ccccc1`, the T/C is, setting by setting: under setting [10], 105 % of control; under setting [11], 102 % of control; under setting [12], 102 % of control.
`COc1ccc(S(=O)(=O)NN=C(C(=O)O)C(=O)O)cc1`: the T/C was 102 % of control under setting [16], 102 % of control under setting [10], 95 % of control under setting [11] and 109 % of control under setting [12].
Consider `O=C1C(=O)N(c2cccc(Cl)c2)C(=O)N1Cc1ccccc1`, for which the T/C is 98 % of control under setting [4], 104 % of control under setting [5] and 104 % of control under setting [6].
